Test results published in PubChem BioAssay AID1745844 (Carcinogenic Potency Database (CPDB), 2022).
Active and inactive are the calls of the source. The rule behind the calls is not given here.

Test system: rodent lifetime carcinogenesis bioassay, tumor incidence TD50
Experiment: chronic cancer bioassays in animals – CPDB, compiled studies (AID 1745844)

CC(C)CN(N=O)C(N)=O
4.7 mg/kg/day: TD50 (rat, strain Donryu, females, in drinking water, site: any site (literature study), lesion: several types, types named in the paper, dosed 76 weeks, study length 76 weeks)
23.1 mg/kg/day: TD50 (rat, strain Donryu, females, in drinking water, site: stomach, glandular, lesion: several types, types named in the paper, dosed 76 weeks, study length 76 weeks)
active: TD50 (rat, strain Donryu, females, in drinking water, site: digestive tract, lesion: several types, types named in the paper, dosed 76 weeks, study length 76 weeks) 4.73 mg/kg/day | TD50 (rat, strain Donryu, females, in drinking water, site: duodenum, lesion: several types, types named in the paper, dosed 76 weeks, study length 76 weeks) 7.22 mg/kg/day
1220 mg/kg/day: TD50 (rat, strain Donryu, females, in drinking water, site: liver, lesion: several types, types named in the paper, dosed 76 weeks, study length 76 weeks)

CC(=O)Nc1ccc(OCC(O)CNC(C)C)cc1 (centres undefined)
inactive: carcinogen call (mouse, strain AP Alderly Park, females, several routes, site: liver, lesion: one or several types, types not named, dosed 78 weeks, study length 78 weeks) negative | carcinogen call (mouse, strain AP Alderly Park, females, several routes, site: lung, lesion: one or several types, types not named, dosed 78 weeks, study length 78 weeks) negative | TD50 (mouse, strain AP Alderly Park, males, several routes, site: liver, lesion: one or several types, types not named, dosed 78 weeks, study length 78 weeks) 24300 mg/kg/day | TD50 (mouse, strain AP Alderly Park, males, several routes, site: lung, lesion: one or several types, types not named, dosed 78 weeks, study length 78 weeks) 383 mg/kg/day | carcinogen call (rat, strain Alpk:APfSD, females, in feed, site: liver, lesion: one or several types, types not named, dosed 104 weeks, study length 104 weeks) negative | carcinogen call (rat, strain Alpk:APfSD, males, in feed, site: liver, lesion: one or several types, types not named, dosed 104 weeks, study length 104 weeks) negative | TD50 (rat, strain Alpk:APfSD, males, in feed, site: pituitary gland, lesion: one or several types, types not named, dosed 104 weeks, study length 104 weeks) 23.9 mg/kg/day | TD50 (rat, strain Alpk:APfSD, males, in feed, site: testis, lesion: one or several types, types not named, dosed 104 weeks, study length 104 weeks) 194 mg/kg/day

O=C(NCC1CCCCN1)c1cc(OCC(F)(F)F)ccc1OCC(F)(F)F (centres undefined)
inactive: carcinogen call (mouse, strain Charles River CD1, females, in feed, site: liver, lesion: adenoma, dosed 78 weeks, study length 78 weeks) negative | TD50 (mouse, strain Charles River CD1, females, in feed, site: lung, lesion: adenoma, dosed 78 weeks, study length 78 weeks) 938 mg/kg/day | carcinogen call (mouse, strain Charles River CD1, males, in feed, site: liver, lesion: adenoma, dosed 78 weeks, study length 78 weeks) negative | carcinogen call (mouse, strain Charles River CD1, males, in feed, site: liver, lesion: hepatocellular carcinoma, dosed 78 weeks, study length 78 weeks) negative | carcinogen call (mouse, strain Charles River CD1, males, in feed, site: lung, lesion: adenoma, dosed 78 weeks, study length 78 weeks) negative | carcinogen call (rat, strain Charles River Crl:COBS(WI)BR, females, in feed, site: liver, lesion: adenoma, dosed 104 weeks, study length 104 weeks) negative | TD50 (rat, strain Charles River Crl:COBS(WI)BR, males, in feed, site: liver, lesion: adenoma, dosed 104 weeks, study length 104 weeks) 3580 mg/kg/day | TD50 (rat, strain Charles River Crl:COBS(WI)BR, males, in feed, site: testis, lesion: interstitial-cell adenoma, dosed 104 weeks, study length 104 weeks) 79.1 mg/kg/day

O=NN1CCC(O)C1 (centres undefined)
active: TD50 (rat, strain Sprague-Dawley, both sexes, in drinking water, site: any site (literature study), lesion: malignant tumor, dosed 112 weeks, study length 112 weeks) 7.65 mg/kg/day
8.11 mg/kg/day: TD50 (rat, strain Sprague-Dawley, both sexes, in drinking water, site: liver, lesion: hepatocellular carcinoma, dosed 112 weeks, study length 112 weeks)

C=C(C)C(=O)Nc1ccc(Cl)c(Cl)c1
inactive: carcinogen call (mouse, strain B6AKF1, females, oral dosing, site: any site (literature study), lesion: several types, types named in the paper, dosed 76 weeks, study length 76 weeks) negative | carcinogen call (mouse, strain B6AKF1, females, oral dosing, site: liver, lesion: hepatoma, dosed 76 weeks, study length 76 weeks) negative | carcinogen call (mouse, strain B6AKF1, females, oral dosing, site: lung, lesion: adenoma, dosed 76 weeks, study length 76 weeks) negative | TD50 (mouse, strain B6AKF1, males, oral dosing, site: any site (literature study), lesion: several types, types named in the paper, dosed 76 weeks, study length 76 weeks) 49.1 mg/kg/day | TD50 (mouse, strain B6AKF1, males, oral dosing, site: liver, lesion: hepatoma, dosed 76 weeks, study length 76 weeks) 27.1 mg/kg/day | carcinogen call (mouse, strain B6AKF1, males, oral dosing, site: lung, lesion: adenoma, dosed 76 weeks, study length 76 weeks) negative | carcinogen call (mouse, strain B6C3F1, females, oral dosing, site: any site (literature study), lesion: one or several types, types not named, dosed 76 weeks, study length 76 weeks) negative | carcinogen call (mouse, strain B6C3F1, females, oral dosing, site: liver, lesion: hepatoma, dosed 76 weeks, study length 76 weeks) negative | carcinogen call (mouse, strain B6C3F1, females, oral dosing, site: lung, lesion: several types, types named in the paper, dosed 76 weeks, study length 76 weeks) negative | TD50 (mouse, strain B6C3F1, males, oral dosing, site: any site (literature study), lesion: several types, types named in the paper, dosed 76 weeks, study length 76 weeks) 5.39 mg/kg/day | TD50 (mouse, strain B6C3F1, males, oral dosing, site: liver, lesion: hepatoma, dosed 76 weeks, study length 76 weeks) 15.2 mg/kg/day | TD50 (mouse, strain B6C3F1, males, oral dosing, site: lung, lesion: adenoma, dosed 76 weeks, study length 76 weeks) 23.7 mg/kg/day

[N-]=[N+]=CC(=O)OC[C@H](N)C(=O)O
inactive: carcinogen call (rat, strain Wistar, males, i.p., site: pancreas, lesion: one or several types, types not named, dosed 104 weeks, study length 104 weeks) negative
3.02 mg/kg/day: TD50 (rat, strain Wistar, both sexes, i.p., site: liver, lesion: one or several types, types not named, dosed 26 weeks, study length 78 weeks)
active: TD50 (rat, strain Wistar, both sexes, i.p., site: pancreas, exocrine, lesion: carcinoma, dosed 26 weeks, study length 78 weeks) 0.793 mg/kg/day
0.942 mg/kg/day: TD50 (rat, strain Wistar, both sexes, i.p., site: kidney, lesion: one or several types, types not named, dosed 26 weeks, study length 78 weeks)
